Measured values reported in patent US8222432B2 (BioLink Life Sciences, Inc., priority 2008, dated 2012).
Where two headings read alike, the source gives them in different places.

Key:
[1] = system: glucose transporters (GLUT 1 and GLUT 4); conditions: cited from earlier work
glucose assimilation = conditions: comparable to the effect of 200 nM insulin; cited from earlier work
[2] = closed and sealed amber container, cited from earlier work
[3] = Storage stability of magnesium R-(+)-α-lipoate at room temperature / ambient humidity
Text: Test samples of magnesium R-(+)-α-lipoate were stored at ambient temperatures for two years.

pyruvate dehydrogenase = conditions: cited from earlier work
nerve function = conditions: 600 or 1200 mg daily, 24 months; cited from earlier work
diabetic polyneuropathy = conditions: 3-week period; cited from earlier work
diabetic neuropathy = conditions: >600 mg/day; cited from earlier work
[4] = system: neuropathic symptoms and deficits; conditions: 600 mg/day over a 3-week period; cited from earlier work
[5] = system: cardiac autonomic neuropathy; conditions: 800 mg daily, 4 months, diabetic patients with cardiac autonomic neuropathy; cited from earlier work
[6] = system: neuropathy impairment score; conditions: 600 mg daily for 6 months, 509 patients; cited from earlier work
[7] = ambient temperatures, two years

## O=C(O)CCCCC1CCSS1 (stereo not drawn) [R-(+)-α-lipoic acid]
[1]
  translocation of GLUT 1 and GLUT 4 from the cytosol to the plasma membrane: stimulated
Glucose assimilation
  stimulation of glucose assimilation (factor): greater than 2
[2]; refrigerated temperatures
  storage stability: must be used within a few months
[3]; [7]
  visible signs of polymerization or degradation: clumping of the compound, development of a strong sulfur odor, and formation of small and visible gummy balls of dark yellow material
Pyruvate dehydrogenase
  activity of pyruvate dehydrogenase: increased

## O=C(O)CCCC[C@@H]1CCSS1 [magnesium R-(+)-α-lipoate, magnesium R-(+)-alpha-lipoate]
[3]; ambient environments, relative humidities as high as 75%
  hygroscopicity: not hygroscopic
[3]; [7]
  chemical composition, purity and chiral purity on storage: did not change during storage under these conditions
  physical state / appearance and properties on storage: did not change over time
  visible signs of polymerization or degradation: no visible signs of polymerization or degradation
[3]; room temperature, relative humidities as high as 75%, one week
  physical appearance and properties on storage: did not change during storage

## O=C(O)CCCCC1CCSS1 (stereo not drawn) [α-lipoic acid, 1,2-dithiocyclopentane-3-valeric acid]
Nerve function
  nerve function: improved nerve function
[2]; room temperature
  storage stability: a year or longer
Diabetic polyneuropathy
  sensory symptoms (Total Symptom Score): improved sensory symptoms
Diabetic neuropathy
  patient symptoms: significantly improved patient symptoms
[4]
  positive neuropathic symptoms and neuropathic deficits; safety: safe and effective
[5]
  heart rate variability: significantly improved
[6]
  neuropathy impairment score: improved neuropathy impairment score as early as 19 days

## S-(−)-α-lipoic acid [S-(−)-α-lipoate]
[1]
  total content of glucose transporters: appeared to lower
  translocation of GLUT 1 and GLUT 4 from the cytosol to the plasma membrane: had no effect or has an inhibiting effect
Glucose assimilation
  stimulation of glucose assimilation (factor): little or no change
Pyruvate dehydrogenase
  activity of pyruvate dehydrogenase: inhibited
